In paper PMC6109843, “Novel Quinazolinone Inhibitors of ALK2 Flip between Alternate Binding Modes: Structure–Activity Relationship, Structural Characterization, Kinase Profiling, and Cellular Proof of Concept” (Journal of Medicinal Chemistry, 2018):

Columns and labels:
Experiment in all cases: DiscoverX scanEDGE kinase panel
Format in all cases: binding
Conditions in all cases: Cmpd Conc 1000 nM, read-out: % Ctrl
KIT = target: T1, KIT (Homo sapiens, UniProt P10721)
T1 construct: purchased DiscoverX
Description: (§1) We hypothesized that inhibitors of the normal and flipped modes would display distinct selectivity profiles.
(§2) 1. 16 and 21 kinome selectivity data
(§3) (P – phosphorylated; nP – nonphosphorylated; % Ctrl values show the % of DNAEtagged
(§4) kinase which was not displaced from a solid supported ligand by a test compound relative to
(§5) untreated control, quantified by qPCR).
(§6) Please note: ALKs 1, 2, 3, 4, 5 and 6 are listed by their gene symbols: ACVRL1 (ALK1), ACVR1
(§7) (ALK2), BMPR1A (ALK3), ACVR1B (ALK4), TGFBR1 (ALK5) and BMPR1B (ALK6)
(§8) Cmpd DiscoverX Gene Symbol Entrez Gene Symbol % Ctrl Cmpd Conc (nM)

MKNK1 = target: T2, MKNK1 (Homo sapiens, UniProt Q9BUB5)
T2 construct: purchased DiscoverX (DiscoveRx) KINOMEscan scanEDGE / KdELECT
Description: as §1, §2, §3, §4, §5, §6, §7, §8

PIK3CG = target: T3, PIK3CG (Homo sapiens, UniProt P48736)
T3 construct: purchased DiscoverX (DiscoveRx) KINOMEscan scanEDGE / KdELECT
Description: as §1, §2, §3, §4, §5, §6, §7, §8

ACVR2A = target: T4, ACVR2A (Homo sapiens, UniProt P27037)
T4 construct: purchased DiscoverX (DiscoveRx) KINOMEscan scanEDGE / KdELECT
Description: as §1, §2, §3, §4, §5, §6, §7, §8

CDK9 = target: T5, CDK9 (Homo sapiens, UniProt P50750)
T5 construct: purchased DiscoverX (DiscoveRx) KINOMEscan scanEDGE / KdELECT
Description: as §1, §2, §3, §4, §5, §6, §7, §8

PKACEalpha = target: T6, PKACEalpha (Homo sapiens, UniProt P17612)
T6 construct: purchased DiscoverX (DiscoveRx) KINOMEscan scanEDGE / KdELECT
Description: as §1, §2, §3, §4, §5, §6, §7, §8

MKNK2 = target: T7, MKNK2 (Homo sapiens, UniProt Q9HBH9)
T7 construct: purchased DiscoverX (DiscoveRx) KINOMEscan scanEDGE / KdELECT
Description: as §1, §2, §3, §4, §5, §6, §7, §8

ULK2 = target: T8, ULK2 (Homo sapiens, UniProt Q8IYT8)
T8 construct: purchased DiscoverX (DiscoveRx) KINOMEscan scanEDGE / KdELECT
Description: as §1, §2, §3, §4, §5, §6, §7, §8

LCK = target: T9, LCK (Homo sapiens, UniProt P06239)
T9 construct: purchased DiscoverX (DiscoveRx) KINOMEscan scanEDGE / KdELECT
Description: as §1, §2, §3, §4, §5, §6, §7, §8

PRKCE = target: T10, PRKCE (Homo sapiens, UniProt Q02156)
T10 construct: purchased DiscoverX (DiscoveRx) KINOMEscan scanEDGE / KdELECT
Description: as §1, §2, §3, §4, §5, §6, §7, §8

TGFBR1 (ALK5) = target: T11, TGFBR1 (ALK5) (Homo sapiens, UniProt P36897)
T11 construct: purchased DiscoverX (DiscoveRx) KINOMEscan scanEDGE / KdELECT
Description: as §1, §2, §3, §4, §5, §6, §7, §8

DCAMKL1 = target: T12, DCAMKL1 (Homo sapiens, UniProt O15075)
T12 construct: purchased DiscoverX (DiscoveRx) KINOMEscan scanEDGE / KdELECT
Description: as §1, §2, §3, §4, §5, §6, §7, §8

MARK3 = target: T13, MARK3 (Homo sapiens, UniProt P27448)
T13 construct: purchased DiscoverX (DiscoveRx) KINOMEscan scanEDGE / KdELECT
Description: as §1, §2, §3, §4, §5, §6, §7, §8

CDK2 = target: T14, CDK2 (Homo sapiens, UniProt P24941)
T14 construct: purchased DiscoverX (DiscoveRx) KINOMEscan scanEDGE / KdELECT
Description: as §1, §2, §3, §4, §5, §6, §7, §8

JNK1 = target: T15, JNK1 (Homo sapiens, UniProt P45983)
T15 construct: purchased DiscoverX (DiscoveRx) KINOMEscan scanEDGE / KdELECT
Description: as §1, §2, §3, §4, §5, §6, §7, §8

EGFR = target: T16, EGFR (Homo sapiens, UniProt P00533)
T16 construct: purchased DiscoverX (DiscoveRx) KINOMEscan scanEDGE / KdELECT
Description: as §1, §2, §3, §4, §5, §6, §7, §8

PAK2 = target: T17, PAK2 (Homo sapiens, UniProt Q13177)
T17 construct: purchased DiscoverX (DiscoveRx) KINOMEscan scanEDGE / KdELECT
Description: as §1, §2, §3, §4, §5, §6, §7, §8

ADCK3 = target: T18, ADCK3 (Homo sapiens, UniProt Q8NI60)
T18 construct: purchased DiscoverX (DiscoveRx) KINOMEscan scanEDGE / KdELECT
Description: as §1, §2, §3, §4, §5, §6, §7, §8

TIE2 = target: T19, TIE2 (Homo sapiens, UniProt Q02763)
T19 construct: purchased DiscoverX (DiscoveRx) KINOMEscan scanEDGE / KdELECT
Description: as §1, §2, §3, §4, §5, §6, §7, §8

RIPK2 = target: T20, RIPK2 (Homo sapiens, UniProt O43353)
T20 construct: purchased DiscoverX (DiscoveRx) KINOMEscan scanEDGE / KdELECT
Description: as §1, §2, §3, §4, §5, §6, §7, §8

ABL1EP = target: T21, ABL1EP (Homo sapiens, UniProt P00519)
T21 construct: purchased DiscoverX (DiscoveRx) KINOMEscan scanEDGE / KdELECT
Description: as §1, §2, §3, §4, §5, §6, §7, §8

PDGFRA = target: T22, PDGFRA (Homo sapiens, UniProt P16234)
T22 construct: purchased DiscoverX (DiscoveRx) KINOMEscan scanEDGE / KdELECT
Description: as §1, §2, §3, §4, §5, §6, §7, §8

AURKB = target: T23, AURKB (Homo sapiens, UniProt Q96GD4)
T23 construct: purchased DiscoverX (DiscoveRx) KINOMEscan scanEDGE / KdELECT
Description: as §1, §2, §3, §4, §5, §6, §7, §8

EGFR(L858R) = target: T24, EGFR(L858R) (Homo sapiens, UniProt P00533, L858R)
T24 construct: purchased DiscoverX (DiscoveRx) KINOMEscan scanEDGE / KdELECT
Description: as §1, §2, §3, §4, §5, §6, §7, §8

ABL1(T315I)EP = target: T25, ABL1(T315I)EP (Homo sapiens, UniProt P00519, T315I)
T25 construct: purchased DiscoverX (DiscoveRx) KINOMEscan scanEDGE / KdELECT
Description: as §1, §2, §3, §4, §5, §6, §7, §8

CDK7 = target: T26, CDK7 (Homo sapiens, UniProt P50613)
T26 construct: purchased DiscoverX (DiscoveRx) KINOMEscan scanEDGE / KdELECT
Description: as §1, §2, §3, §4, §5, §6, §7, §8

ACVR1B (ALK4) = target: T27, ACVR1B (ALK4) (Homo sapiens, UniProt P36896)
T27 construct: purchased DiscoverX (DiscoveRx) KINOMEscan scanEDGE / KdELECT
Description: as §1, §2, §3, §4, §5, §6, §7, §8

BMPR1B (ALK6) = target: T28, BMPR1B (ALK6) (Homo sapiens, UniProt O00238)
T28 construct: purchased DiscoverX (DiscoveRx) KINOMEscan scanEDGE / KdELECT
Description: as §1, §2, §3, §4, §5, §6, §7, §8

SRPK3 = target: T29, SRPK3 (Homo sapiens, UniProt Q9UPE1)
T29 construct: purchased DiscoverX (DiscoveRx) KINOMEscan scanEDGE / KdELECT
Description: as §1, §2, §3, §4, §5, §6, §7, §8

ABL1EnP = target: T30, ABL1EnP (Homo sapiens, UniProt P00519)
T30 construct: purchased DiscoverX (DiscoveRx) KINOMEscan scanEDGE / KdELECT
Description: as §1, §2, §3, §4, §5, §6, §7, §8

SNARK = target: T31, SNARK (Homo sapiens, UniProt Q9H093)
T31 construct: purchased DiscoverX (DiscoveRx) KINOMEscan scanEDGE / KdELECT
Description: as §1, §2, §3, §4, §5, §6, §7, §8

PDPK1 = target: T32, PDPK1 (Homo sapiens, UniProt O15530)
T32 construct: purchased DiscoverX (DiscoveRx) KINOMEscan scanEDGE / KdELECT
Description: as §1, §2, §3, §4, §5, §6, §7, §8

[1] = target: T33, RSK2(Kin.Dom.1ENEterminal) (Homo sapiens, UniProt P51812)
T33 construct: RSK2(Kin.Dom.1ENEterminal); purchased DiscoverX (DiscoveRx) KINOMEscan scanEDGE / KdELECT
Description: as §1, §2, §3, §4, §5, §6, §7, §8

AURKA = target: T34, AURKA (Homo sapiens, UniProt O14965)
T34 construct: purchased DiscoverX (DiscoveRx) KINOMEscan scanEDGE / KdELECT
Description: as §1, §2, §3, §4, §5, §6, §7, §8

CDK3 = target: T35, CDK3 (Homo sapiens, UniProt Q00526)
T35 construct: purchased DiscoverX (DiscoveRx) KINOMEscan scanEDGE / KdELECT
Description: as §1, §2, §3, §4, §5, §6, §7, §8

ABL2 = target: T36, ABL2 (Homo sapiens, UniProt P42684)
T36 construct: purchased DiscoverX (DiscoveRx) KINOMEscan scanEDGE / KdELECT
Description: as §1, §2, §3, §4, §5, §6, §7, §8

JNK2 = target: T37, JNK2 (Homo sapiens, UniProt P45984)
T37 construct: purchased DiscoverX (DiscoveRx) KINOMEscan scanEDGE / KdELECT
Description: as §1, §2, §3, §4, §5, §6, §7, §8

YANK3 = target: T38, YANK3 (Homo sapiens, UniProt Q86UX6)
T38 construct: purchased DiscoverX (DiscoveRx) KINOMEscan scanEDGE / KdELECT
Description: as §1, §2, §3, §4, §5, §6, §7, §8

CSNK1G2 = target: T39, CSNK1G2 (Homo sapiens, UniProt P78368)
T39 construct: purchased DiscoverX (DiscoveRx) KINOMEscan scanEDGE / KdELECT
Description: as §1, §2, §3, §4, §5, §6, §7, §8

T8 sequence (Q8IYT8 whole entry): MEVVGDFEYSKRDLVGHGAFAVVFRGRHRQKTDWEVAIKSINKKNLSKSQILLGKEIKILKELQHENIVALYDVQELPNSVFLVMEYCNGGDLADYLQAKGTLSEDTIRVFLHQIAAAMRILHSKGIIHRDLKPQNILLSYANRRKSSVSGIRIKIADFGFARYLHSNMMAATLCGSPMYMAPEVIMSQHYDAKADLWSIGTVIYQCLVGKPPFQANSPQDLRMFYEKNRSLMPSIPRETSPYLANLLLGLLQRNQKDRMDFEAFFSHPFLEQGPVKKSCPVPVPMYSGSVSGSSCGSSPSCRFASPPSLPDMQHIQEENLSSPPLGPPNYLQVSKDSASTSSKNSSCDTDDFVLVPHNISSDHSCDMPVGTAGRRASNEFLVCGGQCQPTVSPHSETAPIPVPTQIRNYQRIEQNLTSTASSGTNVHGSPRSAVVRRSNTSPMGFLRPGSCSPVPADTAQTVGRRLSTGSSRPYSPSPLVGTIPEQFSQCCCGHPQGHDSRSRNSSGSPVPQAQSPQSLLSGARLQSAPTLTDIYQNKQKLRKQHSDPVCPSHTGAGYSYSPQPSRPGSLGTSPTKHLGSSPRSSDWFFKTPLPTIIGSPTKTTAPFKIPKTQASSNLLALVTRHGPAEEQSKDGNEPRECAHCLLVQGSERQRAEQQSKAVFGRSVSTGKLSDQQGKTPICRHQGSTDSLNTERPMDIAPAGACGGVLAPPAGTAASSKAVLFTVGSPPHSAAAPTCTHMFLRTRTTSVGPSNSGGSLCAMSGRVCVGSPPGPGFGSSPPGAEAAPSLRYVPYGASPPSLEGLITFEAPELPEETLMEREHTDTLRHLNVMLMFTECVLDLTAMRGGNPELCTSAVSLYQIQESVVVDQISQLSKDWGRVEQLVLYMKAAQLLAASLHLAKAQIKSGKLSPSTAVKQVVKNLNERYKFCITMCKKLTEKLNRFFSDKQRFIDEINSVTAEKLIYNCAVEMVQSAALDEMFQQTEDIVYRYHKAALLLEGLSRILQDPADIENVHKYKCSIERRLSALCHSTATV
T10 sequence (Q02156 whole entry): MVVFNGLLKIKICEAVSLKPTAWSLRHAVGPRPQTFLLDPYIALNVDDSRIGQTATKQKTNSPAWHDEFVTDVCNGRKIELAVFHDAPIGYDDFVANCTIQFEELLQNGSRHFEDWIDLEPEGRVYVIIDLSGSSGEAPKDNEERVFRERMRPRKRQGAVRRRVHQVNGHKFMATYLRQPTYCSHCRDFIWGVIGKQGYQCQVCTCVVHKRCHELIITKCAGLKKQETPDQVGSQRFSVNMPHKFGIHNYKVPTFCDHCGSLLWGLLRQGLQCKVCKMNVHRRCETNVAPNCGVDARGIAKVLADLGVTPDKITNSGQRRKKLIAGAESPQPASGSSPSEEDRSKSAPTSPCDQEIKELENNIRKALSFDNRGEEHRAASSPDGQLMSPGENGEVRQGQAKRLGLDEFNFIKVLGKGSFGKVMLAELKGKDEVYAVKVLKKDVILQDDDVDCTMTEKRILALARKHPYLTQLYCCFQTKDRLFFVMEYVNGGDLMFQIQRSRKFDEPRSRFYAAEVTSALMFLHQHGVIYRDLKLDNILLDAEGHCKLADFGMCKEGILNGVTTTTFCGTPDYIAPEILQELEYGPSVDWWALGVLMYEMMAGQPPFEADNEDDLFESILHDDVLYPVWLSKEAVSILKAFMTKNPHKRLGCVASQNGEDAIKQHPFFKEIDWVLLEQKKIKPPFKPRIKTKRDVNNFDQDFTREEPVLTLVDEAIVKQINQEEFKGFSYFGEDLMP
T31 sequence (Q9H093 whole entry): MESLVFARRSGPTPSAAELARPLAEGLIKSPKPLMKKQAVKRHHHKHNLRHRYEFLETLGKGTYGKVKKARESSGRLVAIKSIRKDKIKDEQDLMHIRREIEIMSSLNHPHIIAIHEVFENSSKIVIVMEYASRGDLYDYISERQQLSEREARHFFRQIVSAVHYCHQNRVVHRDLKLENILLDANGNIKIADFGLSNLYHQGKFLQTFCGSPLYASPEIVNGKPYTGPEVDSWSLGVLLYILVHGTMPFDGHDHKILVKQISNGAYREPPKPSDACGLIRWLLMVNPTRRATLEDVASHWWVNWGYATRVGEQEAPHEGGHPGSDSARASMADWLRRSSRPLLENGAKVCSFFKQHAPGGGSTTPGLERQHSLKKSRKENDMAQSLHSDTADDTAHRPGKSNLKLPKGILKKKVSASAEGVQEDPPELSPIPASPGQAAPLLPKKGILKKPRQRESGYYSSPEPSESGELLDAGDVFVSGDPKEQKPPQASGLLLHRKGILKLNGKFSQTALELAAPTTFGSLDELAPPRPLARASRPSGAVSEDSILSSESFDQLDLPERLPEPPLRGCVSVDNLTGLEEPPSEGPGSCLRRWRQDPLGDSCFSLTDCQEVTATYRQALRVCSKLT
T5 sequence (P50750 whole entry): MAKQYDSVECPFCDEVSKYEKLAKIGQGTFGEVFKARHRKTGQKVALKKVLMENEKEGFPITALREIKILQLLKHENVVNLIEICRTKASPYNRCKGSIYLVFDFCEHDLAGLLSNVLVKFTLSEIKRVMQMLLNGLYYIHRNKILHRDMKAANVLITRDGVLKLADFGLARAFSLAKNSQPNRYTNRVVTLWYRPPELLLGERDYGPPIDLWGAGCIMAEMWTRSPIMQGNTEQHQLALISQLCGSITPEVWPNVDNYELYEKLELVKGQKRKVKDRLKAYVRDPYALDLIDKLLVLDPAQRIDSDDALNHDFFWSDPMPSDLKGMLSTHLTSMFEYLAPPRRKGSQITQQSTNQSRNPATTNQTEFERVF
T15 sequence (P45983 whole entry): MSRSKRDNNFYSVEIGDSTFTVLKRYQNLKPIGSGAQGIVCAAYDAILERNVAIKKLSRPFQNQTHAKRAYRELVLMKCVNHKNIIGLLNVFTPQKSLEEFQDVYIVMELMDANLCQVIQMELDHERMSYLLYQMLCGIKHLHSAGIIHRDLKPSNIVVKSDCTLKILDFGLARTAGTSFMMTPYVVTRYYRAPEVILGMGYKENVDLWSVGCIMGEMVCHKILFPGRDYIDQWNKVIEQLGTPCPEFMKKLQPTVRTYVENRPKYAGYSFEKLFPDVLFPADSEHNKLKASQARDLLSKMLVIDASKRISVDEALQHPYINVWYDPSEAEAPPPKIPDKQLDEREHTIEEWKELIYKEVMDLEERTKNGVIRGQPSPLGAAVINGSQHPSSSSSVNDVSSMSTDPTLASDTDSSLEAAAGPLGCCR
T35 sequence (Q00526 whole entry): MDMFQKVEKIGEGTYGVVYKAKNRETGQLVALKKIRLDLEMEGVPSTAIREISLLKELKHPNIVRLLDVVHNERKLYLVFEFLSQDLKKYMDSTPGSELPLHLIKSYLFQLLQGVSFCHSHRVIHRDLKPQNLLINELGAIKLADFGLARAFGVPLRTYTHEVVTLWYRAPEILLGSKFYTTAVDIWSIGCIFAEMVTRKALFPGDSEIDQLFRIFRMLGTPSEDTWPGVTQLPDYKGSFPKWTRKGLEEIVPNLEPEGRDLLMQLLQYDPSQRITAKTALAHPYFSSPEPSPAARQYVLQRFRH
T9 sequence (P06239 whole entry): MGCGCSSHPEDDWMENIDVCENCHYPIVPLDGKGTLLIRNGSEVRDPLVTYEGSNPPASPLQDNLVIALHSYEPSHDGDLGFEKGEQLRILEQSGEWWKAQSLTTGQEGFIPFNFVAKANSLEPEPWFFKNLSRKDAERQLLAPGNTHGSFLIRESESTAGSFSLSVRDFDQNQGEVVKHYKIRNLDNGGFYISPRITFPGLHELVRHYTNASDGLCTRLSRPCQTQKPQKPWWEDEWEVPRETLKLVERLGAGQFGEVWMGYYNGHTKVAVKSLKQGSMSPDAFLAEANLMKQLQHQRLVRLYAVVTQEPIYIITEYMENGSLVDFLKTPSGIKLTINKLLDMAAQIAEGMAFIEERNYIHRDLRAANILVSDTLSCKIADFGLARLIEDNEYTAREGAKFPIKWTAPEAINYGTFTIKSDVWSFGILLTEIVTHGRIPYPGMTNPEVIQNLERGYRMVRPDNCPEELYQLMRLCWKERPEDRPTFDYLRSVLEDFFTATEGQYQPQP
T38 sequence (Q86UX6 whole entry): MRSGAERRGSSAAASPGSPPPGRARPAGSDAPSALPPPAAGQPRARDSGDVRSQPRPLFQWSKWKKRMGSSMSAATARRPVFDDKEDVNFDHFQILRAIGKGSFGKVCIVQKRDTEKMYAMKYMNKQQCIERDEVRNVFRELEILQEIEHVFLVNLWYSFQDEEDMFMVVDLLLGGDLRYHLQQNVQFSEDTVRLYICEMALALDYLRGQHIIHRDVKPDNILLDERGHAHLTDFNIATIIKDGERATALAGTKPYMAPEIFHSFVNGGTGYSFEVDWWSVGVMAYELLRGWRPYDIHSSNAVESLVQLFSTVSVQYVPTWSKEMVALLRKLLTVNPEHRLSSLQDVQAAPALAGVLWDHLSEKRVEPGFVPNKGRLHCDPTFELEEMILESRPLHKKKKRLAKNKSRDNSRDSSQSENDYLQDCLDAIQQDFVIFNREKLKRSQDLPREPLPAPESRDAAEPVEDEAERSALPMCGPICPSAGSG
T7 sequence (Q9HBH9 whole entry): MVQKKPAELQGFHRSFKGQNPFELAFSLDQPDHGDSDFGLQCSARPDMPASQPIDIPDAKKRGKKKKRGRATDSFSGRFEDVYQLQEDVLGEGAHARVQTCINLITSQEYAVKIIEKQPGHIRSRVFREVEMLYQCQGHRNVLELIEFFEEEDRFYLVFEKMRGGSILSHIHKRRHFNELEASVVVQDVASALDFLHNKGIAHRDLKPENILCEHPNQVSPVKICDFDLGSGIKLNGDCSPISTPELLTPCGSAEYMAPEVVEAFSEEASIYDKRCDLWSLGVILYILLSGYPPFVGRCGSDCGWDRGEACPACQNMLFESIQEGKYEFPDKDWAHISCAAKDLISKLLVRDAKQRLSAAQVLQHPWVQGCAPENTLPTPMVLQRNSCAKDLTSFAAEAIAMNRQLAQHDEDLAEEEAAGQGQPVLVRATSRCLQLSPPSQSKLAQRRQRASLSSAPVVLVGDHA

Compound: O=c1c2cc(-c3ccnc4ccccc34)ccc2ncn1-c1ccc(N2CCOCC2)cc1 [compound 16, 3-(4-Morpholinophenyl)-6-(quinolin-4-yl)quinazolin-4(3H)-one]
- remaining binding at 1 µM (KIT): 1.8%
- remaining binding at 1 µM (MKNK1): 92%
- remaining binding at 1 µM (PIK3CG): 100%
- remaining binding at 1 µM (ACVR2A): 100%
- remaining binding at 1 µM (CDK9): 94%
- remaining binding at 1 µM (PKACEalpha): 89%
- remaining binding at 1 µM (MKNK2): 100%
- remaining binding at 1 µM (ULK2): 93%
- remaining binding at 1 µM (LCK): 98%
- remaining binding at 1 µM (PRKCE): 92%
- remaining binding at 1 µM (TGFBR1 (ALK5)): 96%
- remaining binding at 1 µM (DCAMKL1): 92%
- remaining binding at 1 µM (MARK3): 90%
- remaining binding at 1 µM (CDK2): 95%
- remaining binding at 1 µM (JNK1): 100%
- remaining binding at 1 µM (EGFR): 71%
- remaining binding at 1 µM (PAK2): 54%
- remaining binding at 1 µM (ADCK3): 100%
- remaining binding at 1 µM (TIE2): 99%
- remaining binding at 1 µM (RIPK2): 88%
- remaining binding at 1 µM (ABL1EP): 77%
- remaining binding at 1 µM (PDGFRA): 8.7%
- remaining binding at 1 µM (AURKB): 97%
- remaining binding at 1 µM (EGFR(L858R)): 63%
- remaining binding at 1 µM (ABL1(T315I)EP): 100%
- remaining binding at 1 µM (CDK7): 97%
- remaining binding at 1 µM (ACVR1B (ALK4)): 100%
- remaining binding at 1 µM (BMPR1B (ALK6)): 4.1%
- remaining binding at 1 µM (SRPK3): 79%
- remaining binding at 1 µM (ABL1EnP): 76%
- remaining binding at 1 µM (SNARK): 100%
- remaining binding at 1 µM (PDPK1): 84%
- remaining binding at 1 µM [1]: 100%
- remaining binding at 1 µM (AURKA): 100%
- remaining binding at 1 µM (CDK3): 100%
- remaining binding at 1 µM (ABL2): 97%
- remaining binding at 1 µM (JNK2): 100%
- remaining binding at 1 µM (YANK3): 86%
- remaining binding at 1 µM (CSNK1G2): 90%
